Measured values taken from patent publication US4508663A, “Process for preparing thiosulfenamide derivatives of N-phosphonomethylglycinonitriles” (Monsanto Company, priority 1983, dated 1985).

Tests used:
Test in all cases: post-emergence herbicidal activity, greenhouse
Assay type in all cases: in vivo
Barnyardgrass = tested on: Barnyardgrass
Description: (§1) A good grade of top soil is placed in aluminum pans having holes in the bottom and compacted to a depth of 0.95 to 1.27 cm. from the top of the pan. A predetermined number of seeds of each of several dicotyledonous and monocotyledonous annual plant species and/or vegetative propagules for the perennial plant species are placed on the soil and pressed into the soil surface. The seeds and/or vegetative propagules are covered with soil and leveled. The pans are then placed on a sand bench in the greenhouse and watered from below as needed. After the plants reach the desired age (two to three weeks), each pan except for the control pans is removed individually to a spraying chamber and sprayed by means of an atomizer operating at a positive air pressure of approximately 1.46 kg/cm^2 absolute. The atomizer contains 6 ml. of a solution or suspension of the chemical. In that 6 ml., is an amount of a cyclohexanone emulsifying agent mixture to give a spray solution or suspension which contains about 0.4% by weight of the emulsifier. The spray solution or suspension contains a sufficient amount of the candidate chemical in order to give application rates corresponding to those set forth in the tables. The spray solution is prepared by taking an aliquot of a 1.0% by weight stock solution or suspension of the candidate chemical in an organic solvent such as acetone or tetrahydrofuran or in water. The emulsifying agent employed is a mixture comprising 35 weight percent butylamine dodecylbenzene sulfonate and 65 weight percent of a tall oil ethylene oxide condensate having about 11 moles of ethylene oxide per mole of tall oil. The pans are returned to the greenhouse and watered as before and the injury to the plants as compared to the control is observed at approximately two and four weeks as indicated in the tables under WAT and the results recorded. In some instances, the two-week observations are omitted.
(§2) The post-emergence herbicidal activity index used in Table I is as follows: […]

Cocklebur = tested on: Cocklebur
Description: as §1, §2

Crabgrass = conditions: Table II, 2 WAT
Description: as §1, §2

Downy Brome = tested on: Downy Brome
Description: as §1, §2

Hemp Sesbania = conditions: Table II, 2 WAT
Description: as §1, §2

Johnsongrass = conditions: Table I
Description: as §1, §2

Lambsquarters = tested on: Lambsquarters
Description: as §1, §2

Morningglory = tested on: Morningglory
Description: as §1, §2

Panicum Spp = conditions: Table II, 2 WAT
Description: as §1, §2

Quackgrass = conditions: Table I
Description: as §1, §2

Rice = conditions: Table II, 2 WAT
Description: as §1, §2

Smartweed = tested on: Smartweed
Description: as §1, §2

Sorghum = conditions: Table II, 2 WAT
Description: as §1, §2

Soybean = conditions: Table II, 2 WAT
Description: as §1, §2

Sugar Beet = conditions: Table II, 2 WAT
Description: as §1, §2

Velvetleaf = tested on: Velvetleaf
Description: as §1, §2

Wheat = conditions: Table II, 2 WAT
Description: as §1, §2

Wild Buckwheat = conditions: Table II, 2 WAT
Description: as §1, §2

Yellow Nutsedge = conditions: Table I
Description: as §1, §2

Measured: post-emergence herbicidal activity index

N#CCN(CP(=O)(Oc1ccccc1)Oc1ccccc1)SSc1ccc2ccccc2c1 [IX, Phosphonic acid, [[(cyanomethyl)(2-naphthalenyldithio)amino]methyl]-, diphenyl ester]
0 (0-24% control): Barnyardgrass; Table I, 2 WAT, 5.6 kg/h | Barnyardgrass; Table II, 2 WAT, 0.28 kg/h | Barnyardgrass; Table II, 2 WAT, 1.12 kg/h | Cocklebur; Table I, 2 WAT, 5.6 kg/h | Cocklebur; Table II, 2 WAT, 0.28 kg/h | Cocklebur; Table II, 2 WAT, 1.12 kg/h | Crabgrass; 0.28 kg/h | Crabgrass; 1.12 kg/h | Downy Brome; Table I, 2 WAT, 5.6 kg/h | Downy Brome; Table I, 4 WAT, 11.2 kg/h | Downy Brome; Table II, 2 WAT, 0.28 kg/h | Downy Brome; Table II, 2 WAT, 1.12 kg/h | Downy Brome; Table II, 2 WAT, 5.6 kg/h | Hemp Sesbania; 0.28 kg/h | Hemp Sesbania; 1.12 kg/h | Lambsquarters; Table II, 2 WAT, 0.28 kg/h | Lambsquarters; Table II, 2 WAT, 1.12 kg/h | Morningglory; Table I, 2 WAT, 5.6 kg/h | Morningglory; Table I, 4 WAT, 11.2 kg/h | Morningglory; Table II, 2 WAT, 0.28 kg/h | Morningglory; Table II, 2 WAT, 1.12 kg/h | Panicum Spp; 0.28 kg/h | Panicum Spp; 1.12 kg/h | Panicum Spp; 5.6 kg/h | Quackgrass; 2 WAT, 5.6 kg/h | Rice; 0.28 kg/h | Rice; 1.12 kg/h | Rice; 5.6 kg/h | Smartweed; Table I, 2 WAT, 5.6 kg/h | Smartweed; Table II, 2 WAT, 0.28 kg/h | Smartweed; Table II, 2 WAT, 1.12 kg/h | Sorghum; 0.28 kg/h | Sorghum; 1.12 kg/h | Soybean; 0.28 kg/h | Soybean; 1.12 kg/h | Soybean; 5.6 kg/h | Sugar Beet; 0.28 kg/h | Sugar Beet; 1.12 kg/h | Sugar Beet; 5.6 kg/h | Velvetleaf; Table II, 2 WAT, 0.28 kg/h | Velvetleaf; Table II, 2 WAT, 1.12 kg/h | Velvetleaf; Table II, 2 WAT, 5.6 kg/h | Wheat; 0.28 kg/h | Wheat; 1.12 kg/h | Wild Buckwheat; 0.28 kg/h | Wild Buckwheat; 1.12 kg/h | Yellow Nutsedge; 2 WAT, 5.6 kg/h | Yellow Nutsedge; 4 WAT, 11.2 kg/h
1 (25-49% control): Barnyardgrass; Table I, 4 WAT, 11.2 kg/h | Barnyardgrass; Table II, 2 WAT, 5.6 kg/h | Cocklebur; Table I, 4 WAT, 11.2 kg/h | Cocklebur; Table II, 2 WAT, 5.6 kg/h | Hemp Sesbania; 5.6 kg/h | Johnsongrass; 2 WAT, 5.6 kg/h | Johnsongrass; 4 WAT, 11.2 kg/h | Lambsquarters; Table I, 2 WAT, 5.6 kg/h | Morningglory; Table II, 2 WAT, 5.6 kg/h | Quackgrass; 4 WAT, 11.2 kg/h | Smartweed; Table II, 2 WAT, 5.6 kg/h | Sorghum; 5.6 kg/h | Velvetleaf; Table I, 2 WAT, 5.6 kg/h | Velvetleaf; Table I, 4 WAT, 11.2 kg/h | Wheat; 5.6 kg/h | Wild Buckwheat; 5.6 kg/h
2 (50-74% control): Crabgrass; 5.6 kg/h
3 (75-99% control): Lambsquarters; Table I, 4 WAT, 11.2 kg/h | Lambsquarters; Table II, 2 WAT, 5.6 kg/h | Smartweed; Table I, 4 WAT, 11.2 kg/h
